Reference: article PMC6911004, “Fragment-based screening identifies molecules targeting the substrate-binding ankyrin repeat domains of tankyrase” (Scientific Reports, 2019)

Key:
TNKS2 ARC5 = molecular target: T1, TNKS2 ARC5 (Homo sapiens, UniProt Q9H2K2); assay: T2 relaxation-edited ligand-observed NMR assay; format: binding; conditions: DSF hit validation
T1 construct: followed by TNKS2 ARC5 (1 μL, 100 μM stock); His6-GST; made in house; host or cells: E. coli
Excerpt: 39 hits from the DSF screen were suitable for follow-up by ligand-observed NMR methods. We re-purchased fragments and performed T2 relaxation-edited (CPMG-edited) and waterLOGSY experiments for each fragment with TNKS2 ARC5. We explored saturation transfer difference (STD) NMR, also using TNKS2 ARC5, but the assay was not sensitive enough to produce a reliable binding signal, likely due to the relatively small size of a single ARC protein (data not shown). High ligand concentrations were required to achieve sufficient signal, which in turn could lead to false-positive hits due to non-specific binding.
Using the relaxation-edited assay, we tested each fragment in three independent measurements (Fig. 2C), unless we obtained two negative results (non-binding) in the first two experiments. […] As a negative NOE for the compound-only sample could indicate aggregation, we flagged these compounds as potentially problematic. We identified 14 fragments that bound to TNKS2 ARC5 by both relaxation-edited and waterLOGSY methods (0.78% hit rate). We next tested whether binding of these fragments occurred competitively with the 3BP2 TBM peptide, and also if they bound to TNKS2 ARC4, as competition with peptide binders at various different ARCs will be a prerequisite for an efficient substrate binding antagonist. Three fragments (1, 2, 3) bound to both TNKS2 ARC4 and ARC5 and were competitive with the TBM peptide (0.16% hit rate) (Fig. 2E). Three further fragments also bound to both ARCs, but were not TBM competitive by NMR.
Fragments were dispensed in duplicate into a 384-well plate (250 nL, 100 mM stock in DMSO). Wells were backfilled with DMSO (2.25 μL). Tankyrase ARC protein (47.5 μL in 25 mM HEPES, pH 7.5, 100 mM NaCl, 2 mM TCEP, 10% D2O; 20 μM final protein concentration in the assay) was added to the ‘protein’ samples; buffer only (47.5 μL) was added to the ‘compound-only’ samples. Solutions were transferred to 1.7 mm NMR tubes using a Gilson liquid handling system. ^1H NMR spectra were recorded, with the DMSO and water signals dampened. A relaxation spin filter was applied at 400 ms[65]. Data were processed using Bruker Topspin 3.14. Lines were broadened with LB = 3.0, and the baseline was corrected between 6.0–10.0 ppm. The average integral for all peaks between 6.0–10.0 ppm was calculated, and the difference between compound-only and compound-plus-protein samples was compared. A reduction in signal integrals of ≥15% was classified as a hit. For competitive experiments, 3BP2 16-mer peptide (100 μM) was added, and the spectra were recorded and processed as above. The variability in signal reduction in the relaxation-edited experiment was previously determined as approximately ± 10% (Liu et al., unpublished observations).

TNKS2 ARC1 (20–178) = molecular target: T2, TNKS2 ARC1 (20–178) (Homo sapiens, UniProt Q9H2K2); assay: T2 relaxation-edited ligand-observed NMR assay; format: binding
T2 construct: TNKS2 ARC1 (20–178); His6-GST; made in house; host or cells: E. coli
T2 sequence (Q9H2K2 20-178): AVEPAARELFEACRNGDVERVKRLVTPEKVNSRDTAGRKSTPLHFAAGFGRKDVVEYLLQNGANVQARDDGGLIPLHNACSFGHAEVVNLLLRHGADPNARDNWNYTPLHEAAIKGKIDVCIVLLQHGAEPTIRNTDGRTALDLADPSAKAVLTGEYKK
Excerpt: The anticipated functional redundancy between ARCs and the existence of two tankyrase paralogues will require efficient substrate binding antagonists to ideally bind all TBM-binding ARCs of both TNKS and TNKS2. […] We tested binding of compound 9 to all TNKS and TNKS2 ARCs using the relaxation-edited NMR assay (Fig. 4E, Table 3). Compound 9 bound all ARCs, with the exception of TNKS2 ARC1. Given the invariant residue infrastructure of the peptide-binding pocket in ARC1 of TNKS and TNKS2, this observation is difficult to reconcile with available structural information. […]
Fragments were dispensed in duplicate into a 384-well plate (250 nL, 100 mM stock in DMSO). […] Solutions were transferred to 1.7 mm NMR tubes using a Gilson liquid handling system. ^1H NMR spectra were recorded, with the DMSO and water signals dampened. […] The average integral for all peaks between 6.0–10.0 ppm was calculated, and the difference between compound-only and compound-plus-protein samples was compared. […] For competitive experiments, 3BP2 16-mer peptide (100 μM) was added, and the spectra were recorded and processed as above. The variability in signal reduction in the relaxation-edited experiment was previously determined as approximately ± 10% (Liu et al., unpublished observations).

T1 sequence (Q9H2K2 641-800): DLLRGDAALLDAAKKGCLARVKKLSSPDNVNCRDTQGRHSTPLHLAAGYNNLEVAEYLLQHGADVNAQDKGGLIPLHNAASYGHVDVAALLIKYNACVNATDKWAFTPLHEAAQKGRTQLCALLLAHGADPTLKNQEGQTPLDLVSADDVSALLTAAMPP

How did the “binding to TNKS2 ARC5 by ligand-observed NMR, in words” value (TNKS2 ARC5; relaxation-edited and waterLOGSY) turn out when O=C(NCc1ccco1)c1ccc(F)cc1 [compound 3] was run?
Its value is “bound”.

And the “competition with the 3BP2 TBM peptide by relaxation-edited NMR” value (TNKS2 ARC5; ARC used for competition not given)?
The value was “competitive”.

How did the “T2 relaxation-edited: reduction of signal integrals” value (TNKS2 ARC1 (20–178)) turn out when O=C(NCc1ccco1)c1ccc2nccnc2c1 [compound 9] was run?
Its value is 0%.
